The text below walks through data of patent US20260018245A1, “SYSTEMS AND METHODS FOR IDENTIFYING AND TARGETING COLLATERAL LETHAL GENES” (The Regents of the University of Michigan, priority 2022, published 2026).

In test [1] the test system is oxidative MTHFD2 flux in SKOV3 cells. Kind of test: Oxidative MTHFD2 flux by 4-[2H]-glucose tracing. The format is cell-based. To be noted: SKOV3 treated with rotenone and MTHFD2 inhibitor 60 μM. The method, then: FIG. 4 Dynamic flux analysis with parallel tracers to quantify oxidative MTHFD2 flux. a, Oxidative MTHFD2 flux and percentage decrease in OCRfollowing MTHFD2 inhibition in SKOV3 cells treated with rotenone (0, 31, 62, 125, 250, 500 or 1,000 nM) and MTHFD2 inhibitor (0 or 60 μM). Oxidative MTHFD2 flux is proportional to [2H1]-serine/[2H1]-NADH enrichment in cells cultured with 4-[2H]-glucose for 8 h. Percentage decrease in OCR is estimated in SKOV3 cells treated with 60 μM MTHFD2i compared with 0 μM MTHFD2i. Oxidative flux data are combined from two independent experiments (n=4), with mean±s.d. estimated using error propagation. […] (n=6) and analysed using two-tailed Welch's t-test. e, Ratio of [2H2]-serine/[2H]-NADH enrichment in SKOV3 and OVCAR8 cells at 2 h after combined tracer introduction of 4-[2H]-glucose and [2H]-formate, representing the normalized contribution of [2H]-NADH to [2H2]-serine via oxidative MTHFD2 flux. Data combined from two independent experiments (n=6), with mean±s.d. estimated using error propagation and analysed by two-tailed Welch's t-test. f, [2H2]-serine enrichment in SKOV3 cells expressing shScramble or shUQCR11 at 2 h after combined tracer introduction of 4-[2H]-glucose and [2H]-formate. […] (n=5) and analysed using one-tailed non-parametric Mann-Whitney test. […]

The next test relates to SKOV3 cells. Kind of test: Oxygen consumption rate (OCR) measurement. The format is cell-based. The protocol: FIG. 4 Dynamic flux analysis with parallel tracers to quantify oxidative MTHFD2 flux. a, Oxidative MTHFD2 flux and percentage decrease in OCRfollowing MTHFD2 inhibition in SKOV3 cells treated with rotenone (0, 31, 62, 125, 250, 500 or 1,000 nM) and MTHFD2 inhibitor (0 or 60 μM). Oxidative MTHFD2 flux is proportional to [2H1]-serine/[2H1]-NADH enrichment in cells cultured with 4-[2H]-glucose for 8 h. Percentage decrease in OCR is estimated in SKOV3 cells treated with 60 μM MTHFD2i compared with 0 μM MTHFD2i. Oxidative flux data are combined from two independent experiments (n=4), with mean±s.d. estimated using error propagation. OCR data are representative of two independent experiments and presented as mean±s.d. estimated using error propagation (n=5). b, Reductive MTHFD2 flux and basal OCR in SKOV3 cells treated with rotenone (0, 31, 62, 125, 250 or 1,000 nM) and MTHFD2 inhibitor (0 or 60 μM). Reductive MTHFD2 flux is proportional to [2H1]-NADH in cells cultured with 2,3,3-[2H]-serine for 8 h. OCR data are representative of two independent experiments and presented as mean±s.e.m. (n=5). c, Schematic of combination tracer experiment with 4-[2H]-glucose and [2H]-formate to track oxidative MTHFD2 flux. […] (n=6) and analysed using two-tailed Welch's t-test. e, Ratio of [2H2]-serine/[2H]-NADH enrichment in SKOV3 and OVCAR8 cells at 2 h after combined tracer introduction of 4-[2H]-glucose and [2H]-formate, representing the normalized contribution of [2H]-NADH to [2H2]-serine via oxidative MTHFD2 flux. Data combined from two independent experiments (n=6), with mean±s.d. estimated using error propagation and analysed by two-tailed Welch's t-test. f, [2H2]-serine enrichment in SKOV3 cells expressing shScramble or shUQCR11 at 2 h after combined tracer introduction of 4-[2H]-glucose and [2H]-formate. […] (n=5) and analysed using one-tailed non-parametric Mann-Whitney test.
OCR measurement. […] Live OCR was measured for up to 16 h after attaching the lid.
Mito stress test with the Seahorse analyser. Mitochondrial OCR was measured using a Seahorse XFe96 analyser (Agilent Technologies). […]

On to `Cc1c(N2CCN(C)[C@@H](C)C2)ccc2c3c(c(=O)oc12)CN(C(=O)c1ccc(NS(C)(=O)=O)c(OC(F)(F)F)c1)CC3` [DS18561882], for which the “oxidative MTHFD2 flux” value in test [1] is “suppressed”. For the same compound, the OCR entry in the test with SKOV3 cells (SKOV3, low range of rotenone doses plus MTHFD2 inhibitor 60 μM) was “synergistic decrease”; in the test on SKOV3 cells (SKOV3, rotenone doses >62 nM plus MTHFD2 inhibitor), “did not detrimentally affect OCR”.
